Measured values: patent US8372971B2, “Heterocyclic compounds and methods of use” (TargeGen, Inc., priority 2004, dated 2013)
Counter-ions that a name gives are not always drawn.

What was measured:
[1] = molecular target: T1, raf1 with inactive MEK1 (Raf1-MEK1) (Homo sapiens, UniProt P04049); assay: Raf1-MEK1 assay (KinaseGlo); assay type: biochemical; details: for IC50: Raf-Mek, 3 uM ATP, read-out: RAF-MEK assay (biochemical assay)
T1 construct: purchased Upstate, Lake Placid, N.Y

[2] = test system: p-MEK and p-ERK levels in HUVECs; assay: Western Blot, inhibition of MAPK pathway in cellular assay (Example 27); assay type: cell-based, human; details: for Western Blot: at 5 uM, 50 ng/ml VEGF or FGF
Method: (§1) Western Blot: Early passage primary human umbilical vein endothelial cells (HUVECs) were maintained in EGM-2 containing SingleQuots (Cambrex, East Rutherford, N.J.), 10% FBS, 10 mM HEPES, and 50 μg/ml gentamicin. Prior to treatment of the cells with inhibitor, the HUVECs were starved for 18 h by replacing serum-containing complete media with scrum-free and SingleQuot-free media. The starved cells were pre-treated with inhibitors for 60 min at various concentrations (0-20 μM). Next the HUVECs were treated with 50 ng/ml VEGF or FGF (Peprotech, Rocky Hill, N.J.) for 6 min and the cells were immediately washed with ice-cold PBS. Cells were lysed with ice-cold RIPA buffer containing 100 mM Tris pH 7.5, 150 mM NaCl, 1 mM EDTA, 1% deoxycholate, 1% Triton X-100, 0.1% SDS, 2 mM PMSF, one Complete-Mini protease inhibitor tablet (Roche, Indianapolis, Ind.; 1 tablet/7 ml of lysis buffer) and the phophatase inhibitors NaF (500 mM) and orthovanadate (1 mM). The cells were scraped and lysates transferred and centrifuged at 15,000 g for 10 min. Supernatants were transferred to new tubes and protein concentration was quantitated using the BCA protein reagent (Pierce, Rockford, Ill.). Cell lysates containing 20 μg of total protein were separated by 10% SDS-PAGE, transferred to nitrocellulose, and blocked in 5% milk in TBST. Anti phospho-ERK Thr 202/Tyr 204 (Cell Signaling, Beverly, Mass.), anti-phospho-MEK Ser217/221 (Cell Signaling), and c-Raf (BD Biosciences Pharmingen, San Diego, Calif.) used as primary antibodies were detected with horseradish peroxidase-conjugated goat anti-mouse or rabbit secondary antibodies and bands were visualized using the SuperSignal West Pico chemiluminescence reagent system (Pierce) and Kodak X-ray film (Rochester, N.Y.).

[3] = test system: p-MEK and p-ERK levels in HUVECs; assay: Western Blot, inhibition of MAPK pathway in cellular assay (Example 105); assay type: cell-based, human; details: for Western Blot: 50 ng/ml VEGF or FGF
Method: as §1, with “Some compounds described by the general structure (B) were tested for inhibition of MAPK pathway in cellular assay. Western” for “Western”, “serum-free” for “scrum-free”, “main.” for “min.”

HUVECs = assay: XTT cell viability assay (Example 106); assay type: cell-based, human; details: Homo sapiens, HUVEC, 72 hours, read-out: Inhibition of HUVEC cell prolifiration (IC50)
Method: Some compounds described by the general structure (B) were tested for cell viability. XTT assay: HUVECs were seeded at 10,000 cells/well of a tissue culture treated 96-well plate treated with collagen type I and grown overnight in the complete EGM-2 media as described above. The following morning, the inhibitors were serial diluted with DMSO and added to the cells with a final DMSO concentration of 1%. After 72 hours cell viability was measured with an XTT assay (Sigma, St. Louis, Mo.). The cells were also photographed to compare morphological differences to the XTT trends observed. Determination of the IC50 values was performed with quantitative software (Prism software package, GraphPad Software, San Diego Calif.).

[4] = Homo sapiens, HUVEC, VEGF or FGF, read-out: reduction in p-Erk levels, IC50

T1 sequence (P04049 306-648 limits assumed): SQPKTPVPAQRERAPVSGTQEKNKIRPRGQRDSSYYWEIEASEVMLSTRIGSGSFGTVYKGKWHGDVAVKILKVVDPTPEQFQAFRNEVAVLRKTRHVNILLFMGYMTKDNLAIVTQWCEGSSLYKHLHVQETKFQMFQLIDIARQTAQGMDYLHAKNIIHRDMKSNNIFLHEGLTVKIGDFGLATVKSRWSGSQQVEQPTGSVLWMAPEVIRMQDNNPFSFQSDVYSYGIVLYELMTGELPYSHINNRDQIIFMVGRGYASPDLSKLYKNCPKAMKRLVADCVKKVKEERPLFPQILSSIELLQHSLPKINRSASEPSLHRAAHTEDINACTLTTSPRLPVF

CNC(=O)c1cc(Oc2ccc3nc(NC(=O)c4ccc(Cl)cc4Cl)nnc3c2)ccn1 [4-[2,4-dichloro-benzoylamino)-benzo[1,2,4]triazin-7-yloxy]-pyridine-2-carboxylic acid methyl amide trifluoroacetate salt]
RAF-MEK assay (biochemical assay), result in words [1]: flat
Western Blot [2]: not active at 5 uM

CNC(=O)c1cc(Oc2ccc3nc(NS(=O)(=O)c4ccccc4C(F)(F)F)nnc3c2)ccn1 [4-[2-(trifluoromethyl-benzenesulfonylamino)-benzo[1,2,4]triazin-7-yloxy]-pyridine-2-carboxylic acid methyl amide trifluoroacetate salt]
RAF-MEK assay (biochemical assay), result in words [1]: flat
Western Blot [2]: not active at 5 uM

CNC(=O)c1cc(Oc2ccc3nc(NC(=O)c4cc(C(F)(F)F)ccc4Cl)nnc3c2)ccn1 [4-[2-chloro-3-trifluoromethyl-benzoylamino)-benzo[1,2,4]triazin-7-yloxy]-pyridine-2-carboxylic acid methyl amide trifluoroacetate salt]
Western Blot [2]: not active at 5 uM

CNC(=O)c1cc(Oc2ccc3nc(NS(=O)(=O)c4cc(C(F)(F)F)ccc4Cl)nnc3c2)ccn1 [4-[2-chloro-5-(trifluoromethyl-benzenesulfonylamino)-benzo[1,2,4]triazin-7-yloxy]-pyridine-2-carboxylic acid methyl amide trifluoroacetate salt]
Western Blot [2]: not active at 5 uM

CNC(=O)c1cc(Oc2ccc3nc(NC(=O)c4cc(C(F)(F)F)cc(Cl)c4F)nnc3c2)ccn1 [4-[2-fluoro-3-chloro-5-trifluoromethyl-benzoylamino)-benzo[1,2,4]triazin-7-yloxy]-pyridine-2-carboxylic acid methyl amide trifluoroacetate salt]
IC50 [1]: 0.723 µM
window [1]: ~30%
Western Blot [2]: not active at 5 uM

CNC(=O)c1cc(Oc2ccc3nc(NC(=O)c4cccc(C(F)(F)F)c4Cl)nnc3c2)ccn1 [4-[3-(2-chloro-3-trifluoromethyl-benzoylamino)-benzo[1,2,4]triazin-7-yloxy]-pyridine-2-carboxylic acid methyl amide trifluoroacetate salt]
RAF-MEK assay (biochemical assay), result in words [1]: flat
Western Blot [2]: not active at 5 uM

CNC(=O)c1cc(Oc2ccc3nc(NS(=O)(=O)c4cccc(C(F)(F)F)c4)nnc3c2)ccn1 [4-[3-(3-trifluoromethyl-benzenesulfonylamino)-benzo[1,2,4]triazin-7-yloxy]-pyridine-2-carboxylic acid methyl amide trifluoroacetate salt]
RAF-MEK assay (biochemical assay), result in words [1]: flat
Western Blot [2]: not active at 5 uM

CNC(=O)c1cc(Oc2ccc3nc(NC(=O)c4cccc(C(F)(F)F)c4)nnc3c2)ccn1 [4-[3-(3-trifluoromethyl-benzoylamino)-benzo[1,2,4]triazin-7-yloxy]-pyridine-2-carboxylic acid methyl amide trifluoroacetate salt]
IC50 [1]: 0.655 µM
window [1]: ~70%
Western Blot [2]: not active at 5 uM

CNC(=O)c1cc(Oc2ccc3nc(NC(=O)c4ccc(Cl)c(C(F)(F)F)c4)nnc3c2)ccn1 [4-[3-(4-chloro-3-trifluoromethyl-benzoylamino)-benzo[1,2,4]triazin-7-yloxy]pyridine-2-carboxylic acid meth amide trifluoroacetate salt]
IC50 [1]: 10 to 50 µM
Western Blot [2]: not active at 5 uM

CNC(=O)c1cc(Oc2ccc3nc(Nc4ccc(Cl)c(C(F)(F)F)c4)nnc3c2)ccn1 [4-[3-(4-chloro-3-trifluoromethyl-phenylamino)-benzo[1,2,4]triazin-7-yloxy]-pyridine-2-carboxylic acid methylamide trifluoroacetate salt]
IC50 [1]: 0.0116 µM
window [1]: ~20%
Western Blot [2]: not active at 5 uM

O=C(Nc1ccc(OC(F)(F)F)cc1)Nc1nnc2cc(Oc3ccnc(C(=O)NCCN4CCOCC4)c3)ccc2n1 [4-{3-[3-(4-Trifluoromethoxy-phenyl)-ureido]-benzo[1,2,4]triazin-7-yloxy}-pyridine-2-carboxylic acid (2-morpholin-4-yl-ethyl)-amide]
Western Blot [2]: not active at 5 uM

CN(C)C(=O)c1cc(Oc2ccc3nc(N(C)C(=O)c4ccc(OC(F)(F)F)cc4)nnc3c2)ccn1 [4-{3-[Methyl-(4-trifluoromethoxy-benzoyl)-amino]-benzo[1,2,4]triazin-7-yloxy}-pyridine-2-carboxylic acid dimethyl amide]
Western Blot [2]: partially active at 5 uM

N#CC(=C(/N)Sc1ccccc1N)/C(C#N)=C(\N)Sc1ccccc1N [Example U0126, reference compound]
IC50 [2, 4]: 0.2 to 0.3 µM
p-MEK levels ([2]; VEGF or FGF): unaffected
IC50 [3, 4]: 0.2 to 0.3 µM
p-MEK levels ([3]; VEGF or FGF): unaffected

FC(F)(F)c1cc(Nc2nnc(-c3ccc(Oc4ccncc4)cc3)o2)ccc1Cl [N-[4-chloro-3-(trifluoromethyl)phenyl]-5-[4-(pyridin-4-yloxy)phenyl]-1,3,4-oxadiazol-2-amine trifluoroacetate salt]
IC50 (HUVECs): 8.6 µM
Western Blot ([3]; at 5 uM): active at 5 uM

FC(F)(F)c1cc(Nc2nnc(-c3ccc(Oc4cncnc4)cc3)o2)ccc1Cl [N-[4-chloro-3-(trifluoromethyl)phenyl]-5-[4-(pyrimidin-5-yloxy)phenyl]-1,3,4-oxadiazol-2-amine trifluoroacetate salt]
IC50 (HUVECs): 9.65 µM
Western Blot ([3]; at 5 uM): active at 5 uM

O=C(Nc1nnc(-c2ccc(Oc3cccnc3)cc2)o1)c1ccccc1OC(F)(F)F [N-{5-[4-(pyridin-3-yloxy)phenyl]-1,3,4-oxadiazol-2-yl}-2-(trifluoromethoxy)-benzamide]
IC50 (HUVECs): ~20 µM
Western Blot ([3]; at 10 uM): not active at 10 uM

O=C(Nc1nnc(-c2ccc(Oc3cccnc3)cc2)o1)c1cccc(OC(F)(F)F)c1 [N-{5-[4-(pyridin-3-yloxy)phenyl]-1,3,4-oxadiazol-2-yl}-3-(trifluoromethoxy)-benzamide]
IC50 (HUVECs): > 40 µM
Western Blot ([3]; at 10 uM): not active at 10 uM

O=C(Nc1nnc(-c2ccc(Oc3cccnc3)cc2)o1)c1cccc(C(F)(F)F)c1 [N-{5-[4-(pyridin-3-yloxy)phenyl]-1,3,4-oxadiazol-2-yl}-3-(trifluoromethyl)benzamide]
IC50 (HUVECs): > 40 µM
Western Blot ([3]; at 10 uM): active at 10 uM

O=C(Nc1nnc(-c2ccc(Oc3cccnc3)cc2)o1)c1ccc(OC(F)(F)F)cc1 [N-{5-[4-(pyridine-3-yloxy)phenyl]-1,3,4-oxadiazol-2-yl}-4-(trifluoromethoxy)benzamide]
IC50 (HUVECs): > 40 µM
Western Blot ([3]; at 10 uM): not active at 10 uM
